Data published in article PMC9657236, “Anti-Leukemic Activity of Brassica-Derived Bioactive Compounds in HL-60 Myeloid Leukemia Cells” (International Journal of Molecular Sciences, 2022).
Read-outs that look alike come from different tables or passages of the source.

Tests used:
[1] = tested on: NRF2/KEAP1 signaling pathway; assay: RT-qPCR gene expression in undifferentiated HL-60 cells; format: cell-based, human; conditions: for expression levels of the NRF2-target genes HMOX, NQO1 and GSTA1 (in words): undifferentiated HL-60, RT-qPCR, dose-dependent
Source text: Total RNA was extracted from HL-60 cells using the GenElute Mammalian Total RNA Miniprep kit (Sigma) following the manufacturer’s instructions. RNA was eluted in RNAse-free water and checked for concentration and purity using the Nanodrop spectrophotometer system (ND-100 3.3. Nanodrop Technologies, Thermo Scientific, Madrid, Spain). Only samples with a ratio of Abs260/Abs280 between 1.8 and 2.1 were used for gene expression assays. cDNA was generated using a high-capacity RNA-to-cDNA kit (Thermo Fisher Scientific, Madrid, Spain) according to the manufacturer’s protocol. PCR amplification was carried out with PowerUp SYBR Green PCR Master Mix (Applied Biosystems, Waltham, MA, USA) using a Fast 7500 Real-Time instrument (Applied Biosystems, Waltham, MA, USA). The obtained data were analyzed using the 7500 SDS software (Applied Biosystems, Waltham, MA, USA). Actin beta (ACTB) and Glyceraldehyde 3-phosphate dehydrogenase (GAPDH) were used as reference genes. Both were considered suitable reference genes for gene expression normalization based on geNorm and/or Bestkeeper stability analysis. The gene-stability measures were performed using the RefFinder tool. Relative expression was calculated using the 2^−ΔΔCt method. All experiments were performed in triplicate and in three independent experiments.

[2] = tested on: HL-60 cells; assay: MTT viability assay in proliferative HL-60 cells; format: cell-based, human; conditions: for IC50: proliferative HL-60 cells, mean ± SD, n = 3; for IC50 / effect on HL-60 cell viability (in words): MTT; for cytotoxic effect (in words): after 24 h; for effect on HL-60 cell viability (in words): doses up to 50 µM, 24, 48 and 72 h
Experimental: The human acute myeloid leukemia cell line HL-60 (ATCC® CCL-240™) was used to test the Brassica spp. phytochemicals. Maintenance of the cells was performed as previously described. Briefly, cells were grown in RPMI-1640 medium (Biowest) supplemented with 10% fetal bovine serum (FBS; Gibco, Thermo Fisher Scientific, Madrid, Spain) and 1% penicillin/streptomycin (Gibco, Thermo Fisher Scientific, Madrid, Spain), at 37 °C with 5% CO2 and 90% humidity. All in vitro assays were performed after passage number 5 and before passage number 20 with cells growing at an exponential ratio.
The anti-tumor activity of the compounds was evaluated by the MTT (3-(4,5-dimethylthiazol-2-yl)-2,5-diphenyltetrazolium bromide) viability assays as described previously. In brief, HL-60 cells were cultured at a concentration of 10^5 cells/mL (exponential growth rate) in 96-well plates containing 200 μL of cell culture medium and exposed to different doses of the tested compounds (0.5 μM, 1 μM, 5 μM, 10 μM, 25 μM, and 50 μM) for 24, 48, and 72 h. Then, MTT (Thermo Fisher) was added at a final concentration of 483 μM (0.2 mg/mL) and cells were incubated for 1 h at 37 °C and 5% CO2. Afterward, cells were lysed using an acidified isopropanol solubilization solution containing 0.04 M hydrochloric acid and 0.1% NP-40 detergent to release the formazan. Finally, the absorbance was measured at 550 nm using a SPECTROstar Nano (BMG Labtech, Germany) plate reader. The compound cytotoxicity was normalized to the control conditions (untreated with an equivalent dose of vehicle (DMSO) when applicable).

[3] = MTT viability assay in macrophage-like differentiated HL-60 cells; format: cell-based, human; conditions: human, macrophage-like differentiated HL-60 cells (PMA), differentiated HL-60 cells, 48 h, MTT, mean ± SD
Experimental: (§1) In order to test the specificity of the compounds as potential anti-tumor/cytotoxic agents with no collateral negative effects upon non-proliferative cells, the series of compounds were also assayed in an in vitro model of human macrophage-like cells derived from the same HL-60 cell line. To obtain these differentiated macrophage-like cells, HL-60 human leukemia cells growing at an exponential rate in suspension were exposed to a dose of 10 ng/mL of phorbol myristate acetate (PMA) (Sigma-Aldrich, Merck, Análisis Vínicos SL, Tomelloso, Spain) for 24 h in 96-well plates at a cell density of 0.2·10^6 HL-60 cells/well at 37 °C and 5% CO2. Cells were then incubated in culture media without PMA for another 24 h in the same culture conditions. After differentiation and resting periods, differentiated cells were treated for 48 h with compound solutions at different concentrations. Finally, MTT assays were performed as previously explained to measure cell viability. All experiments were performed in triplicate and in three independent experiments.

[4] = tested on: HL-60 cells; design: method as in PMID 15135302; conditions: apoptosis induction and cytodifferentiation; cited from earlier work
[5] = tested on: HL-60 differentiated cells; assay: MTT viability assay in macrophage-like differentiated HL-60 cells; format: cell-based, human
Experimental: as §1

[6] = Homo sapiens, HL-60, higher dose (50 µM), 48 h, read-out: cell viability

For O=C(/C=C/c1ccc(O)c(O)c1)O[C@@H]1C[C@](O)(C(=O)O)C[C@@H](O)[C@H]1O [CQA, Chlorogenic acid], the “expression levels of the NRF2-target genes HMOX, NQO1 and GSTA1 (in words)” value (shortened to “expression levels”) [1] was “markedly induce”, the viability at 25 µM ([2]; Homo sapiens, HL-60, 25 µM treatment, 48 and 72 h, read-out: cell viability) was under 50% and the viability at 50 µM [2, 6] was 13%. It also gave a viability at 50 µM ([2]; Homo sapiens, HL-60, higher dose (50 µM), 72 h, read-out: cell viability) of 11%, an IC50 ([2]; Homo sapiens, 48 h treatment) of 17.4 ± 0.7 µM and an IC50 ([2]; Homo sapiens, 72 h treatment) of 28.9 ± 0.7 µM. The viability at 48 h, 10 µM [3] was 114 ± 19.2%, the viability at 48 h, 25 µM [3] was 114 ± 20.6% and the viability at 48 h, 50 µM [3] was 109 ± 11.8%.

In the case of OCc1c[nH]c2ccccc12 [I3C, indole-3-carbinol], the viability at 50 µM ([2]; Homo sapiens, HL-60, maximum dose (50 µM), 24 h, read-out: cell viability) is reported as 38%, the “cytotoxic effect (in words)” value [2] is reported as “mild but significant cytotoxic effect” and the viability at 48 h, 10 µM [3] is reported as 93.6 ± 8%. For the same compound, the viability at 48 h, 25 µM [3] was 99.5 ± 5.4% and the viability at 48 h, 50 µM [3] was 95.1 ± 10.4%.

With CSCCCCC(=NOS(=O)(=O)O)SC1OC(CO)C(O)C(O)C1O (stereo not drawn) [GER, glucoerucin] the “effect on HL-60 cell viability (in words)” value [2] was “did not show any significant effects”.

In the case of C[S+]([O-])CCCC/C(=N\OS(=O)(=O)O)S[C@@H]1O[C@H](CO)[C@@H](O)[C@H](O)[C@H]1O (stereo partly drawn) [GRA, glucoraphanin], the “effect on HL-60 cell viability (in words)” value [2] is reported as “did not show any significant effects”.

In the case of OC[C@H]1O[C@@H](Oc2cc3c(O)cc(O)cc3[o+]c2-c2ccc(O)c(O)c2)[C@H](O)[C@@H](O)[C@@H]1O [C3G, cyanidin-3-glucoside chloride], the “concentrations needed to inhibit the proliferative capacity of HL-60 cells” value [4] is given as over 100 µM, the “expression levels” value [1] is given as “markedly induce” and the cell viability ([2]; 10–50 µM doses, 24 h) is given as “around 40%”. The cell viability ([2]; 25 and 50 µM, 48 h and 72 h) was “below 20%”, the IC50 ([2]; Homo sapiens, 48 h treatment) was 7 ± 1 µM and the IC50 ([2]; Homo sapiens, 72 h treatment) was 21.9 ± 0.3 µM. For the same compound, the viability at 48 h, 10 µM [3] was 114 ± 24.4%, the viability at 48 h, 25 µM [3] was 108 ± 7.4% and the viability at 48 h, 50 µM [3] was 107 ± 12.8%.

In the case of COc1cc(/C=C/C(=O)O)cc(OC)c1O [SIA, sinapic acid], the “effect on HL-60 cell viability (in words)” value [2] is reported as “did not have any effect whatsoever”.

In the case of O=S(=O)(O)O/N=C(/Cc1c[nH]c2ccccc12)S[C@@H]1O[C@H](CO)[C@@H](O)[C@H](O)[C@H]1O [GBS, glucobrassicin], the “effect on HL-60 cell viability (in words)” value [2] is reported as “did not show any effect”.

With c1ccc2c(Cc3c[nH]c4ccccc34)c[nH]c2c1 [DIM, 3,3′-Diindolmethane] the viability at 50 µM [2, 6] was 25%, the “cytotoxic effect (in words)” value [2] was “mild but significant cytotoxic effect” and the maximum cytotoxicity ([2]; higher dose (50 µM), 48 h) was 75%. It also gave a viability at 48 h, 10 µM [3] of 102 ± 22.7%, a viability at 48 h, 25 µM [3] of 118 ± 27.2% and a viability at 48 h, 50 µM [3] of 105 ± 13.5%.

For C[S+]([O-])CCCCN=C=S (stereo not drawn) [SFN, sulforaphane], the “induction of the NRF2/KEAP1 signaling pathway (in words)” value ([1]; HL-60 cells) was “most potent NRF2 activator”, the “expression levels” value [1] was “markedly induce” and the cytotoxicity levels ([2]; 25 µM and 50 µM, all time points (24, 48 and 72 h)) was “above 95%”. The IC50 ([2]; Homo sapiens, HL-60, 48 h, 48 h treatment) was 6 µM, the IC50 ([2]; Homo sapiens, HL-60, 72 h, 72 h treatment) was 11.3 ± 0.5 µM and the viability at 10 µM ([2]; Homo sapiens, HL-60, 10 µM dose, all time points (24, 48, 72 h)) was under 50%. For the same compound, the IC50 ([2]; 48 h treatment) was 5.9 ± 0.3 µM, the viability at 48 h, 10 µM [3] was 98.2 ± 12.1% and the viability at 48 h, 25 µM [3] was 87.6 ± 6.8%. The viability at 48 h, 50 µM [3] was 70 ± 17.5%, the “cytotoxicity in differentiated cells (in words)” value ([5]; 10 µM) was “did not cause significant cytotoxicity” and the “cytotoxic effect in differentiated HL-60 cells (in words)” value ([5]; concentrations higher than 10 µM, 48 h) was “significant cytotoxic effect”.
